“Also recorded” adds a separate entry of the source. d = 2'-deoxy (DNA); m = 2'-O-methyl Where only a bound is given, the exact number is not on record here.

One series relates to c-raf mRNA. The experiment in a line: Northern blot analysis of c-raf mRNA expression in T24 cells. The series is classed as cell-based, human. The text has this: Chimeric oligonucleotides having SEQ ID NO:7 were designed using the Genbank c-raf sequence HUMRAFR (Genbank listing x03484), synthesized and tested for inhibition of c-raf mRNA expression in T24 bladder carcinoma cells using a Northern blot assay. These chimeric oligonucleotides have central “gap” regions of 6, 8 or 10 deoxynucleotides flanked by two regions of 2′-O-methyl modified nucleotides, and are shown in Table 10. Backbones were uniformly phosphorothioate. […] These oligonucleotides are preferred.
The human urinary bladder cancer cell line T24 was obtained from the American Type Culture Collection (Rockville, Md.). Cells were grown in McCoy's 5A medium with L-glutamine (GIBCO-BRL, Gaithersburg, Md.), supplemented with 10% heat-inactivated fetal calf serum and 50 U/ml each of penicillin and streptomycin. Cells were seeded on 100 mm plates. When they reached 70% confluency, they were treated with oligonucleotide. Plates were washed with 10 ml prewarmed PBS and 5 ml of OptiMEM reduced-serum medium containing 2.5 μl DOTMA. Oligonucleotide with lipofectin was then added to the desired concentration. After 4 hours of treatment, the medium was replaced with McCoy's medium. Cells were harvested 24 to 72 hours after oligonucleotide treatment and RNA was isolated using a standard CsCl purification method. [Kingston in Current Protocols in Molecular Biology, F. M. Ausubel, R. Brent, R. E. Kingston, D. D. Moore, J. A. Smith, J. G. Seidman and K. Strahl, Eds., John Wiley and Sons, New York.] Total RNA was isolated by centrifugation of cell lysates over a CsCl cushion. RNA samples were electrophoresed through 1.2% agarose-formaldehyde gels and transferred to hybridization. membranes by capillary diffusion over a 12-14 hour period. The RNA was cross-linked to the membrane by exposure to UV light in a Stratalinker (Stratagene, La Jolla, Calif.) and hybridized to random-primed ^32P-labeled c-raf cDNA probe (obtained from ATCC) or G3PDH probe as a control. RNA was quantitated using a Phosphorimager (Molecular Dynamics, Sunnyvale, Calif.).

The subject of another series is ras mRNA. The experiment in a line: Northern blot analysis of ras expression in T24 cells. The format is cell-based, human. The arrangement: inhibition of ras expression / decrease of ras mRNA: concentration or dose not given beside the values. To be noted: for inhibition of ras expression: T24 cells (activated codon-12); for inhibition of ras expression / decrease of ras mRNA: T24 cells, Northern blot. The method, then: (§1) The human urinary bladder cancer cell line T24 was obtained from the American Type Culture Collection (Rockville Md.). Cells were grown in McCoy's 5A medium with L-glutamine (GIBCO-BRL, Gaithersburg, Md.), supplemented with 10% heat-inactivated fetal calf serum and 50 U/ml each of penicillin and streptomycin. Cells were seeded on 100 mm plates. When they reached 70% confluency, they were treated with oligonucleotide. Plates were washed with 10 ml prewarmed PBS and 5 ml of OptiMEM (GIBCO) reduced-serum medium containing 2.5 μl DOTMA. Oligonucleotide was then added to the desired concentration. After 4 hours of treatment, the medium was replaced with McCoy's medium. Cells were harvested 48 hours after oligonucleotide treatment and RNA was isolated using a standard CsCl purification method. [Kingston in Current Protocols in Molecular Biology, F. M. Ausubel, R. Brent, R. E. Kingston, D. D. Moore, J. A. Smith, J. G. Seidman and K. Strahl, Eds., John Wiley and Sons, New York.] The human epithelioid carcinoma cell line HeLa 229 was obtained from the American Type Culture Collection (Bethesda, Md.). HeLa cells were maintained as monolayers on 6-well plates in Dulbecco's Modified Eagle's medium (DMEM) supplemented with 10% fetal bovine serum and 100 U/ml penicillin. Treatment with oligonucleotide and isolation of RNA were essentially as described above for T24 cells.
Northern hybridization: 10 μg of each RNA was electrophoresed on a 1.2% agarose/formaldehyde gel and transferred overnight to GeneBind 45 nylon membrane (Pharmacia LKB, Piscataway, N.J.) using standard methods. [Kingston in Current Protocols in Molecular Biology, F. M. Ausubel, R. Brent, R. E. Kingston, D. D. Moore, J. A. Smith, J. G. Seidman and K. Strahl, Eds., John Wiley and Sons, New York.] RNA was UV-crosslinked to the membrane. Double-stranded ^32P-labeled probes were synthesized using the Prime a Gene labeling kit (Promega, Madison, Wis.). The ras probe was a SalI-NheI fragment of a cDNA clone of the activated (mutant) H-ras mRNA having a GGC-to-GTC mutation at codon-12. The control probe was G3PDH. Blots were prehybridized for 15 minutes at 68° C. with the QuickHyb hybridization solution (Stratagene, La Jolla, Calif.). The heat-denatured radioactive probe (2.5×10^6 counts/2 ml hybridization solution) mixed with 100 μl of 10 mg/ml salmon sperm DNA was added and the membrane was hybridized for 1 hour at 68° C. The blots were washed twice for 15 minutes at room temperature in 2×SSC/0.1% SDS and once for 30 minutes at 60° C. with 0.1×SSC/0.1%SDS. Blots were autoradiographed and the intensity of signal was quantitated using an ImageQuant PhosphorImager (Molecular Dynamics, Sunnyvale, Calif.). Northern blots were first hybridized with the ras probe, then stripped by boiling for 15 minutes in 0.1×SSC/0.1%SDS and rehybridized with the control G3PDH probe to check for correct sample loading.

In series [1] the test system is mutant (activated) H-ras RNA. The format is cell-based, human.
A further series concerns T24 cancer cell. In words: Inhibition of proliferation of cancer cells. The format is cell-based, human. To be noted: 100 nM oligonucleotide concentration. The method, then:
Cells were cultured and treated with oligonucleotide essentially as described in Example 27. Cells were seeded on 60 mm plates and were treated with oligonucleotide in the presence of DOTMA when they reached 70% confluency. Time course experiment: On day 1, cells were treated with a single dose of oligonucleotide at a final concentration of 100 nM. The growth medium was changed once on day 3 and cells were counted every day for 5 days, using a counting chamber. Dose-response experiment: Various concentrations of oligonucleotide (10, 25, 50, 100 or 250 nM) were added to the cells and cells were harvested and counted 3 days later. Oligonucleotides 2570, 3985 and 4690 were tested for effects on T24 cancer cell proliferation. EXAMPLE 29

Series [2] relates to ras mRNA (wild-type H-ras codon-12). In words: Northern blot analysis of ras expression in HeLa cells. The series is classed as cell-based, human. The note with it: HeLa cells (wild-type H-ras codon-12). The method, then:
as §1, with “The human epithelioid carcinoma cell line HeLa 229 was obtained from the American Type Culture Collection (Bethesda, Md.). HeLa cells were maintained as monolayers on 6-well plates in Dulbecco's Modified Eagle's medium (DMEM) supplemented with 10% fetal bovine serum and 100 U/ml penicillin. Treatment with oligonucleotide and isolation of RNA were essentially as described above for T24 cells.” left out
Northern hybridization: 10 μg of each RNA was electrophoresed on a 1.2% agarose/formaldehyde gel and transferred overnight to GeneBind 45 nylon membrane (Pharmacia LKB, Piscataway, N.J.) using standard methods. […] Blots were autoradiographed and the intensity of signal was quantitated using an ImageQuant PhosphorImager (Molecular Dynamics, Sunnyvale, Calif.). […]

The test system of series [3] is RNA complement “Y” strand ribo(3′GAG CAU GGY AAG GCC AGG5′). In words: Base-pair specificity: single base mismatches and bulge, thermal melting. The format is binding. To be noted: single base-pair mismatches and a bulge. As for the experimental part: The ability of the 2′-modified oligonucleotides to hybridize to their complementary RNA or DNA sequences was determined by thermal melting analysis. The RNA complement was synthesized from T7 RNA polymerase and a template-promoter of DNA synthesized with an Applied Biosystems, Inc. 380B RNA species was purified by ion exchange using FPLC (LKB Pharmacia, Inc.). Natural antisense oligonucleotides or those containing 2′-modifications at specific locations were added to either the RNA or DNA complement at stoichiometric concentrations and the absorbance (260 nm) hyperchromicity upon duplex to random coil transition was monitored using a Gilford Response II spectrophotometer. These measurements were performed in a buffer of 10 mM Na-phosphate, pH 7.4, 0.1 mM EDTA, and NaCl to yield an ionic strength of 10 either 0.1 M or 1.0 M. Data was analyzed by a graphic representation of 1/Tm vs ln[Ct], where [Ct] was the total oligonucleotide concentration. From this analysis the thermodynamic parameters were determined. Based upon the information gained concerning the stability of the duplex of heteroduplex formed, the placement of modified pyrimidine into oligonucleotides were assessed for their effects on helix stability.
Base-pair specificity of 2′-deoxy-2′-fluoro modified oligonucleotides with the RNA complement (a “Y” strand) was determined by effecting single base-pair mismatches and a bulge. […]

As to “CTCGCCCGCTCCTCCTCCCC (2'-O-methyl P=S chimera, chemistry not fully specified) [ISIS 7849]”, in the series on c-raf mRNA, the “inhibition of c-raf mRNA expression” value is given as greater than 70%.
For the substance “CdCdAd CdAdCd CdGdAd CdGdGd CdGdCd CdCd [Oligonucleotide 2570, reference compound]”, in the series on ras mRNA, the “inhibition of ras expression” value was “inhibited ras expression in T24 cells; also recorded: decreased ras mRNA levels in T24 cells” and the “inhibition of ras expression / decrease of ras mRNA” value worked out at 82%. Besides, in series [1], the “inhibition of ras-luciferase activity” value is “dose-dependent inhibition of ras-luciferase activity” and the “selectivity toward the mutant form of ras-luciferase as compared to the normal form” value is reported as “approximate threefold selectivity”. In the series with T24 cancer cell, the “inhibition of T24 cell proliferation relative to inhibition of HeLa cells” value was “four times as severe”. Besides, in series [2], the “inhibition of ras expression” value is listed as “did not inhibit ras expression in HeLa cells”.
For “TCCGTCATCGCTCCTCAGGG [Oligonucleotide 2503]”, the figures for the “inhibition of ras expression” value (in the series on ras mRNA; in series [2]) were “inhibited ras expression in T24 cells” and “inhibited ras expression in HeLa cells”, respectively. Besides, the “inhibition of ras expression / decrease of ras mRNA” value with ras mRNA (listed as 2503) amounted to 71%.
With “TCCCGCCTGTGACATGCATT (2'-O-methyl P=S chimera, 6-deoxy gap, chemistry not fully specified) [ISIS 6720]”, the “inhibition of c-raf mRNA expression” value with c-raf mRNA is on record as “greater than 70%”.
On the same count and under the same terms, next, “TCCCGCCTGTGACATGCATT (2'-O-methyl P=S chimera, 8-deoxy gap, chemistry not fully specified) [ISIS 6717]”: “greater than 90%”; “TCCTCCTCCCCGCGGCGGGT (2'-O-methyl P=S chimera, chemistry not fully specified) [ISIS 7848]”: greater than 70%; “TTCTCCTCCTCCCCTGGCAG (sugars from the 5' end m12 d8, all phosphorothioate, T or U not given here) [ISIS 7854]”: greater than 70%.
With “TTCTCGCCCGCTCCTCCTCC (2'-O-methyl P=S chimera, chemistry not fully specified) [ISIS 7856]”, in the series with c-raf mRNA, the “inhibition of c-raf mRNA expression” value is reported as greater than 70%.
Regarding “deoxy(CUC GUACCUUUCCGG UCC) (CUCGUACCUUUCCGGUCC; 14 2'-deoxy-2'-fluoro nucleotides, chemistry not fully specified)”, the “specificity of duplex formation with the RNA complement” value in series [3] is recorded as “greater specificity than a like-sequenced unmodified oligonucleotide”.

These data come from US6531584B1, “2'modified oligonucleotides” (ISIS Pharmaceuticals, Inc., priority 1990, dated 2003).
